# Experimental data taken from patent publication US9457099B2, “Polyethylene glycol-based dendrons” (RUTGERS, THE STATE UNIVERSITY OF NEW JERSEY, priority 2010, dated 2016).
# Assays:
# [1] = tested on: J774.E murine macrophage cells; assay: Quantitative macrophage uptake of dendrons (5-FAM fluorescence of cell lysate), with mannan inhibition; type: cell-based
# Method: (§1) J774.E murine macrophage cells were grown as attached cells in a CO2 water-jacketed incubator (Form a Scientific Inc., Marietta, Ohio) with a humidified 5% CO2 atmosphere at 37° C. The cells were maintained in RPMI-1640 (GIBCO) containing 10% fetal bovine serum (FBS), 100 U/mL penicillin, and 100 μg/mL streptomycin/mL. The cells were seeded two days before experiment to 24-well plates at 0.5×10^5 cells/well for quantitative uptake measurement or to chambered coverglass (LAB-TEK II) at 1×10^5 cell/chamber for confocal microscopy. Cells were incubated with G3.0-Mannose (40 nM) in HBSS at 37° C. for 1 hr. For confocal microscopy, the incubation included the additional 0.16 mg/mL of the general endocytosis marker rhodamine B-labeled dextran (10,000 MW) and the nuclear dye DAPI. For Mannan inhibition studies, cells were pre-incubated with mannan (10 mg/mL) for 1 hr, followed by incubation with G3.0-Mannose, with or without rhodamine B-dextran/DAPI plus 10 mg/mL of mannan. After incubation, the unbound molecules were washed thrice using cold DPBS buffer. PEGtide dendron G3.0 (40 nM) (without mannose) was used as a negative control of mannose receptor-mediated cellular uptake.
# (§2) In quantitative uptake experiments, the washed cells were lysed in wells overnight with 150 μL of 1 N NaOH solution and neutralized the next day with 150 μL of 1 N HCl solution, resulting in 300 μL of cell lysate/well. 250 μL of cell lysate was transferred to a well of a 96-well plate for 5-FAM fluorescence measurement on Tecan GENIOS fluorescent plate reader (Phenix Research Products, Hayward, Calif.). The total cell-associated fluorescence reading was converted into total cell-associated dendron amount using a separately established dendron's fluorescence standard curve. A small fraction of the lysate (about 50 μL, depending on cell density plated) was used to determine total cellular protein/well by Bradford Protein Assay. The total cellular protein/well was used to normalize the dendron amount/well to correct well-to-well variation in cell mass.
# [2] = tested on: J774.E murine macrophage cells; assay: Confocal microscopy of dendron uptake; type: cell-based; conditions: 40 nM, 1 hr, with rhodamine B-labeled dextran and DAPI
# Method: as §1, with “For Mannan inhibition studies, cells were pre-incubated with mannan (10 mg/mL) for 1 hr, followed by incubation with G3.0-Mannose, with or without rhodamine B-dextran/DAPI plus 10 mg/mL of mannan. After incubation, the unbound molecules were washed thrice using cold DPBS buffer. PEGtide dendron G3.0 (40 nM) (without mannose) was used as a negative control of mannose receptor-mediated cellular uptake.” left out
# as §2, with “A small fraction of the lysate (about 50 μL, depending on cell density plated) was used to determine total cellular protein/well by Bradford Protein Assay. The total cellular protein/well was used to normalize the dendron amount/well to correct well-to-well variation in cell mass.” left out
# [3] = Dynamic light scattering (DLS) analysis of dendrons; type: physicochemical; conditions: sample concentration 1 mg/mL, 4° C.
# Method: PEGtides were purified on an Alliance reverse-phase high-performance liquid chromatography (RP-HPLC) system (Waters, Mass.) using a Symmetry C18 column (4.6×150 mm, 100 Å, particle size 5 μm). Following mobile phase was used: solvent A, 0.05% aqueous TFA; and solvent B, acetonitrile containing 0.05% TFA. A linear gradient of 95% to 70% of A was applied for 60 min at a flow rate of 1 mL/min. The UV absorptions were monitored at 220 and 250 nm, whereas fluorescence detector was set with excitation and emission wavelengths of 492 and 518 nm, respectively. The dendrons and there derivatives were quantified on a F-7000 fluorescence spectrophotometer (HITACHI, Japan). Mass spectra were acquired on an ABI-MDS SCIEX 4800 matrix-assisted laser desorption/ionisation-time of flight (MALDI-TOF/TOF) mass spectrometer (AB Sciex, Foster City, Calif.). Sample solutions (2 μL) were mixed with matrix solution (20 μL, 20 mg/mL sinapinic acid in 50% aqueous acetonitrile containing 0.1% TFA). This mixture (1 μL) was spotted onto sample holder and dried under a gentle stream of argon at room temperature. All spectra were recorded in positive mode using a linear acquisition method. The dynamic light scattering (DLS) experiments were performed on a Wyatt Dynapro Titan instrument (Wyatt Technology, Santa Barbara, Calif.) with sample concentration of 1 mg/mL. […]
# Cell viability MTT assay = type: cell-based; conditions: mouse, J774.E murine macrophage cells; 40 nM in HBSS for 2 hours; mean±standard deviation (n=6); read-out: cell relative viability (MTT)
# Method: (1) Prepared MTT solution in PBS (pH 7.4) with final concentration of 5 mg/mL.
# (2) Cultured J774.E muring macrophage cells with G3.0-Mannose, G3.0 and PAMAM G1.0, with each concentration of 40 nM, in HBSS for 2 hours. 6 replicates were applied. (n=6).
# (3) Aspirated off the culture medium and washed with DPBS for three times for each well.
# (4) 100 μL of HBSS and 25 μL of MIT solution were added to each well. Placed the plate in incubator at 37° C. overnight.
# (5) Aspirated off the HBSS/MTT solution. Added 200 μL of DMSO for dissolving the crystals.
# (6) Transferred to plate reader and measure the absorption at 570 nm.
compound,measurement,setting,value
O=C(O)CCNC(=O)[C@H](CCCCNC(=O)c1ccc2c(c1)C(=O)OC21c2ccc(O)cc2Oc2cc(O)ccc21)NC(=O)CCOCCOCCOCCOCCOCCOCCNC(=O)[C@H](CCCCNC(=O)CCNC(=O)CCOCCOCCOCCOCCOCCOCCNC(=O)[C@H](CCCCNC(=O)CCNC(=O)CCOCCOCCOCCOCCOCCOCCNC(=O)[C@H](CCCCNC(=O)CCNC(=O)CCOCCOCCOCCOCCOCCOCCNC(=S)Nc1ccc(O[C@H]2O[C@H](CO)[C@@H](O)[C@H](O)[C@@H]2O)cc1)NC(=O)CCNC(=O)CCOCCOCCOCCOCCOCCOCCNC(=S)Nc1ccc(O[C@H]2O[C@H](CO)[C@@H](O)[C@H](O)[C@@H]2O)cc1)NC(=O)CCNC(=O)CCOCCOCCOCCOCCOCCOCCNC(=O)[C@H](CCCCNC(=O)CCNC(=O)CCOCCOCCOCCOCCOCCOCCNC(=S)Nc1ccc(O[C@H]2O[C@H](CO)[C@@H](O)[C@H](O)[C@@H]2O)cc1)NC(=O)CCNC(=O)CCOCCOCCOCCOCCOCCOCCNC(=S)Nc1ccc(O[C@H]2O[C@H](CO)[C@@H](O)[C@H](O)[C@@H]2O)cc1)NC(=O)CCNC(=O)CCOCCOCCOCCOCCOCCOCCNC(=O)[C@H](CCCCNC(=O)CCNC(=O)CCOCCOCCOCCOCCOCCOCCNC(=O)[C@H](CCCCNC(=O)CCNC(=O)CCOCCOCCOCCOCCOCCOCCNC(=S)Nc1ccc(O[C@H]2O[C@H](CO)[C@@H](O)[C@H](O)[C@@H]2O)cc1)NC(=O)CCNC(=O)CCOCCOCCOCCOCCOCCOCCNC(=S)Nc1ccc(O[C@H]2O[C@H](CO)[C@@H](O)[C@H](O)[C@@H]2O)cc1)NC(=O)CCNC(=O)CCOCCOCCOCCOCCOCCOCCNC(=O)[C@H](CCCCNC(=O)CCNC(=O)CCOCCOCCOCCOCCOCCOCCNC(=S)Nc1ccc(O[C@H]2O[C@H](CO)[C@@H](O)[C@H](O)[C@@H]2O)cc1)NC(=O)CCNC(=O)CCOCCOCCOCCOCCOCCOCCNC(=S)Nc1ccc(O[C@H]2O[C@H](CO)[C@@H](O)[C@H](O)[C@@H]2O)cc1 [G3.0-Mannose],quantitative uptake in macrophage,"[1]; 40 nM in HBSS at 37° C. for 1 hr, normalized to total cellular protein",699.6 ± 1.8 pmol/µg
same,specificity for mannose receptor (uptake vs non-mannosylated G3.0),"[1]; 40 nM, 1 hr",53 fold
same,uptake in presence of mannan (mannan inhibition),"[1]; 40 nM, 1 hr, cells pre-incubated 1 hr and co-incubated with mannan 10 mg/mL",7.5 ± 4.7 pmol/µg
same,"intracellular green fluorescence (5-FAM), confocal microscopy",[2],prominent only in G3.0-Mannose treated cells
same,hydrodynamic radius (DLS),[3],90.6 nm
same,"viability at 2 h, 0.04 µM",Cell viability MTT assay,96.4 ± 7.81%
